Laboratory results taken from patent publication US6737383B1, “Herbicidal oxadiazolidines” (priority 1999, dated 2004).

How the values were obtained:
velvetleaf = test: Test B pre/postemergence velvetleaf; type: in vivo, Abutilon theophrasti
Summary of the method: (§1)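 Herbicidal effect was estimated by eye on a ten-point control scale after plants spent twelve to sixteen days in a greenhouse following soil or foliar treatment. Foliar sprays targeted plants at one to four leaves; all doses were formulated in a non-phytotoxic solvent with surfactant.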

crabgrass = test: Test B pre/postemergence crabgrass; type: in vivo, Digitaria sanguinalis
Summary of the method: as §1

duck salad = test: Test B flood test duck salad; type: in vivo, Heteranthera limosa
Summary of the method: (§2)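 Read-out is a visual response score from 0 (no effect) to 10 (complete control), assigned by comparison with untreated controls. Treatment was applied at the 2-leaf stage, and plants stayed in the greenhouse for twelve to sixteen days before scoring.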

sugar beet = test: Test B pre/postemergence sugar beet; type: in vivo, Beta vulgaris
Summary of the method: as §1

purple nutsedge = test: Test B pre/postemergence purple nutsedge; type: in vivo, Cyperus rotundus; conditions: Postemergence
Summary of the method: as §1

rice = test: Test B flood test rice; type: in vivo, Oryza sativa
Summary of the method: as §2

blackgrass = test: Test B pre/postemergence blackgrass; type: in vivo, Alopecurus myosuroides
Summary of the method: as §1

pigweed = test: Test B pre/postemergence pigweed; type: in vivo, Amaranthus retroflexus
Summary of the method: as §1

cocklebur = test: Test B pre/postemergence cocklebur; type: in vivo, Xanthium strumarium
Summary of the method: as §1

corn = test: Test B pre/postemergence corn; type: in vivo, Zea mays
Summary of the method: as §1

wheat = test: Test B pre/postemergence wheat; type: in vivo, Triticum aestivum
Summary of the method: as §1

smallflower flatsedge = test: Test B flood test smallflower flatsedge; type: in vivo, Cyperus difformis
Summary of the method: as §2

soybean = test: Test B pre/postemergence soybean; type: in vivo, Glycine max
Summary of the method: as §1

rape = test: Test B pre/postemergence rape; type: in vivo, Brassica napus
Summary of the method: as §1

giant foxtail = test: Test B pre/postemergence giant foxtail; type: in vivo, Setaria faberii
Summary of the method: as §1

morningglory = test: Test B pre/postemergence morningglory; type: in vivo, Ipomoea hederacea
Summary of the method: as §1

[1] = Postemergence, Rate 250 g/ha, scale 0 to 10, 0 no effect, 10 complete control
[2] = Postemergence, Rate 1000 g/ha, scale 0 to 10 (0 no effect, 10 complete control)
[3] = Preemergence, Rate 125 g/ha, scale 0 to 10 (0 no effect, 10 complete control)
[4] = Preemergence, Rate 250 g/ha, scale of 0 to 10 where 0 is no effect and 10 is complete control
[5] = Preemergence, Rate 500 g/ha, scale 0 (no effect) to 10 (complete control)
[6] = Rate 125 g/ha, Postemergence, scale 0 to 10, 0 no effect, 10 complete control
[7] = Rate 1000 g/ha, Preemergence, scale 0 to 10 (0 no effect, 10 complete control)
[8] = Rate 500 g/ha, Postemergence, 0 to 10 scale (0 no effect, 10 complete control)
[9] = Rate 125 g/ha, Postemergence section (flood test species), scale 0 to 10, 0 no effect, 10 complete control
[10] = Rate 500 g/ha, Postemergence section of Table B, 0 to 10 scale (0 no effect, 10 complete control)
[11] = flood test, listed under Postemergence, Rate 250 g/ha, scale 0 to 10, 0 no effect, 10 complete control

SMILES: CCN(CC)C(=O)n1oc(=O)n(-c2c(C)cccc2C)c1=O [Compound 2]
- Velvetleaf plant response rating (velvetleaf; [1]): 0
- Velvetleaf plant response rating (velvetleaf; [2]): 0
- Plant response rating, Velvetleaf (velvetleaf; [3]): 0
- Plant response rating, Velvetleaf (velvetleaf; [4]): 0
- Velvetleaf plant response rating (velvetleaf; [5]): 0
- Velvetleaf plant response rating (velvetleaf; [6]): 0
- Plant response rating, Velvetleaf (velvetleaf; [7]): 2
- Crabgrass plant response rating (crabgrass; [1]): 0
- Crabgrass plant response rating (crabgrass; [2]): 4
- Plant response rating, Crabgrass (crabgrass; [3]): 0
- Plant response rating, Crabgrass (crabgrass; [4]): 0
- Crabgrass plant response rating (crabgrass; [5]): 0
- Crabgrass plant response rating (crabgrass; [6]): 0
- Crabgrass plant response rating (crabgrass; [8]): 0
- Plant response rating, Crabgrass (crabgrass; [7]): 6
- Ducksalad plant response rating (duck salad; [2]): 0
- Ducksalad plant response rating (duck salad; [9]): 0
- Ducksalad plant response rating (duck salad; [10]): 0
- Ducksalad plant response rating (duck salad; [11]): 0
- Sugarbeets plant response rating (sugar beet; [1]): 0
- Sugarbeets plant response rating (sugar beet; [2]): 0
- Plant response rating, Sugarbeets (sugar beet; [3]): 0
- Plant response rating, Sugarbeets (sugar beet; [4]): 0
- Sugarbeets plant response rating (sugar beet; [5]): 0
- Sugarbeets plant response rating (sugar beet; [6]): 0
- Plant response rating, Sugarbeets (sugar beet; [7]): 0
- Nutsedge plant response rating (purple nutsedge; Rate 250 g/ha, scale 0 to 10, 0 no effect, 10 complete control): 0
- Nutsedge plant response rating (purple nutsedge; Rate 1000 g/ha, scale 0 to 10 (0 no effect, 10 complete control)): 0
- Nutsedge plant response rating (purple nutsedge; Rate 125 g/ha, scale 0 to 10, 0 no effect, 10 complete control): 0
- Nutsedge plant response rating (purple nutsedge; Rate 500 g/ha, 0 to 10 scale (0 no effect, 10 complete control)): 0
- Rice plant response rating (rice; [2]): 0
- Rice plant response rating (rice; [9]): 0
- Rice plant response rating (rice; [10]): 0
- Rice plant response rating (rice; [11]): 0
- Blackgrass plant response rating (blackgrass; [1]): 4
- Blackgrass plant response rating (blackgrass; [2]): 9
- Plant response rating, Blackgrass (blackgrass; [3]): 0
- Plant response rating, Blackgrass (blackgrass; [4]): 0
- Blackgrass plant response rating (blackgrass; [5]): 0
- Blackgrass plant response rating (blackgrass; [6]): 0
- Blackgrass plant response rating (blackgrass; [8]): 8
- Plant response rating, Blackgrass (blackgrass; [7]): 7
- Redroot pigweed plant response rating (pigweed; [1]): 0
- Redroot pigweed plant response rating (pigweed; [2]): 0
- Plant response rating, Redroot pigweed (pigweed; [3]): 0
- Plant response rating, Redroot pigweed (pigweed; [4]): 0
- Redroot pigweed plant response rating (pigweed; [5]): 0
- Redroot pigweed plant response rating (pigweed; [6]): 0
- Redroot pigweed plant response rating (pigweed; [8]): 0
- Plant response rating, Redroot pigweed (pigweed; [7]): 0
- Cocklebur plant response rating (cocklebur; [1]): 0
- Cocklebur plant response rating (cocklebur; [2]): 0
- Plant response rating, Cocklebur (cocklebur; [3]): 0
- Plant response rating, Cocklebur (cocklebur; [4]): 0
- Cocklebur plant response rating (cocklebur; [5]): 0
- Cocklebur plant response rating (cocklebur; [6]): 0
- Cocklebur plant response rating (cocklebur; [8]): 0
- Corn plant response rating (corn; [1]): 3
- Corn plant response rating (corn; [2]): 8
- Plant response rating, Corn (corn; [3]): 4
- Plant response rating, Corn (corn; [4]): 6
- Corn plant response rating (corn; [5]): 7
- Corn plant response rating (corn; [6]): 0
- Corn plant response rating (corn; [8]): 6
- Plant response rating, Corn (corn; [7]): 8
- Wheat plant response rating (wheat; [1]): 0
- Wheat plant response rating (wheat; [2]): 0
- Plant response rating, Wheat (wheat; [3]): 0
- Plant response rating, Wheat (wheat; [4]): 0
- Wheat plant response rating (wheat; [5]): 0
- Wheat plant response rating (wheat; [6]): 0
- Plant response rating, Wheat (wheat; [7]): 0
- S. Flatsedge plant response rating (smallflower flatsedge; [2]): 0
- S. Flatsedge plant response rating (smallflower flatsedge; [9]): 0
- S. Flatsedge plant response rating (smallflower flatsedge; [11]): 0
- Soybean plant response rating (soybean; [1]): 1
- Soybean plant response rating (soybean; [2]): 4
- Plant response rating, Soybean (soybean; [3]): 0
- Plant response rating, Soybean (soybean; [4]): 0
- Soybean plant response rating (soybean; [5]): 0
- Soybean plant response rating (soybean; [6]): 0
- Plant response rating, Soybean (soybean; [7]): 3
- Rape plant response rating (rape; [1]): 0
- Rape plant response rating (rape; [2]): 0
- Plant response rating, Rape (rape; [3]): 0
- Plant response rating, Rape (rape; [4]): 0
- Rape plant response rating (rape; [5]): 0
- Rape plant response rating (rape; [6]): 0
- Rape plant response rating (rape; [8]): 0
- Plant response rating, Rape (rape; [7]): 0
- Giant foxtail plant response rating (giant foxtail; [1]): 7
- Giant foxtail plant response rating (giant foxtail; [2]): 8
- Plant response rating, Giant foxtail (giant foxtail; [3]): 6
- Plant response rating, Giant foxtail (giant foxtail; [4]): 7
- Giant foxtail plant response rating (giant foxtail; [5]): 7
- Giant foxtail plant response rating (giant foxtail; [6]): 0
- Giant foxtail plant response rating (giant foxtail; [8]): 7
- Plant response rating, Giant foxtail (giant foxtail; [7]): 10
- Morningglory plant response rating (morningglory; [1]): 0
- Morningglory plant response rating (morningglory; [2]): 5
- Plant response rating, Morningglory (morningglory; [3]): 0
- Plant response rating, Morningglory (morningglory; [4]): 0
- Morningglory plant response rating (morningglory; [5]): 0
- Morningglory plant response rating (morningglory; [6]): 0
- Morningglory plant response rating (morningglory; [8]): 0
- Plant response rating, Morningglory (morningglory; [7]): 0
